Assay results from patent publication US20260232666A1, “COMPOSITIONS AND METHODS FOR INHIBITION OF RAS” (TheRas, Inc., priority 2023, published 2026).

Legend:
[1] = molecular target: T1, GDP-loaded KRAS4b (amino acids 1-169) G12C/C118S protein (Homo sapiens, UniProt P01116, C118S/G12C); test: Covalent cysteine 12 modification by MALDI-TOF MS, GDP-loaded KRAS G12C; format: binding; details: 15 minutes reaction time point
T1 construct: KRAS4b (amino acids 1-169) G12C/C118S protein; made in house
Outline: (§1)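 Covalent adduct formation measured by linear-mode MALDI-TOF MS as modified peak height over summed peak heights, 15 min time point reported. Reactions: KRAS4b 1-169 G12C/C118S (1 μM, loaded with GppNHp, GTP or GDP) plus compound at 1:2.5 ratio, pH 7.3 HEPES/NaCl/MgCl2, room temperature.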

[2] = molecular target: T2, GppNHp-loaded KRAS4b (amino acids 1-169) G12C/C118S protein (Homo sapiens, UniProt P01116, C118S/G12C); test: Covalent cysteine 12 modification by MALDI-TOF MS, GppNHp-loaded KRAS G12C; format: binding; details: 15 minutes reaction time point
T2 construct: KRAS4b (amino acids 1-169) G12C/C118S protein; made in house
Outline: as §1

pERK in NCI-H358 cells = test: Cell-based pERK HTRF assay (pERK inhibition in H358 cells); details: 30 min incubation
Outline: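 NCI-H358 cells were seeded at 4×10^4 cells/well in RPMI/10% FBS, then treated next day for 30 min at 0.25% DMSO (9-point, 3-fold series from 75 μM). Lysates were read by HTRF (d2/Eu cryptate antibody pair, 615 nm emission) after 4–24 h at room temperature to give pERK IC50.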

[3] = molecular target: T3, GTP-loaded KRAS4b (amino acids 1-169) G12C/C118S protein (Homo sapiens, UniProt P01116, C118S/G12C); test: Covalent cysteine 12 modification by MALDI-TOF MS, GTP-loaded KRAS G12C; format: binding; details: 15 minutes reaction time point
T3 construct: KRAS4b (amino acids 1-169) G12C/C118S protein; made in house
Outline: as §1

GDP-KRAS G12C percent of modification [1]	GppNHp-KRAS G12C percent of modification [2]	IC50 (pERK in NCI-H358 cells; Homo sapiens, NCI-H358, 0.5 h)	GTP-KRAS G12C percent of modification [3]	IC50 (pERK in NCI-H358 cells)	SMILES
A (percent of modification ≥70%)	A (percent of modification ≥70%)	< 100 nM	A (percent of modification ≥70%)		C=CC(=O)N1C[C@H](N(C)c2nc(OC[C@@H]3CCCN3C)nc3c(F)c(-c4ccc(F)c5sc(N)c(C#N)c45)c(C(F)(F)F)cc23)C[C@H]1C [Compound 147]
A (percent of modification ≥70%)	A (percent of modification ≥70%)	< 100 nM	A (percent of modification ≥70%)		C=CC(=O)N1C[C@H](N(C)c2nc(OC[C@@]34CCCN3C[C@H](F)C4)nc3cc(-c4ccc(F)c5sc(N)c(C#N)c45)c(F)cc23)C[C@H]1C [Compound 148]
A (percent of modification ≥70%)	A (percent of modification ≥70%)	< 100 nM	A (percent of modification ≥70%)		C=CC(=O)N1CC[C@@H](N(CC)c2nc(OC[C@@]34CCCN3C[C@H](OC)C4)nc3cc(-c4ccc(F)c5sc(N)c(C#N)c45)c(F)cc23)[C@H]1C [Compound 149]
A (percent of modification ≥70%)	A (percent of modification ≥70%)	< 100 nM	A (percent of modification ≥70%)		C=CC(=O)N1CC[C@@H](N(CC)c2nc(OC[C@@]34CCCN3C[C@H](OC)C4)nc3c(F)c(-c4ccc(F)c5sc(N)c(C#N)c45)c(C(F)(F)F)cc23)[C@H]1C [Compound 150]
A (percent of modification ≥70%)	A (percent of modification ≥70%)	< 100 nM	A (percent of modification ≥70%)		C=CC(=O)N1C[C@H](N(C)c2nc(OC[C@@H]3CCCN3C)nc3c(F)c(-c4ccc(F)c5sc(N)c(C#N)c45)c(C(F)(F)F)cc23)C[C@@H]1C [Compound 153]
C (10%≤percent of modification <50%)	C (10%≤percent of modification <50%)	< 100 nM	C (10%≤percent of modification <50%)		C=CC(=O)N1CC[C@@H](N(CC)c2nc(OC[C@@H]3CCCN3C)nc3c(F)c(-c4nc(N)cc(C)c4C(F)(F)F)c(C(F)(F)F)cc23)[C@H]1C [Compound 155]
A (percent of modification ≥70%)	A (percent of modification ≥70%)	< 100 nM	A (percent of modification ≥70%)		C=CC(=O)N1CC[C@@H](N(C)c2nc(OC[C@]34CCCN3C[C@H](OC)C4)nc3c(F)c(-c4ccc(F)c5sc(N)c(C#N)c45)c(C(F)(F)F)cc23)[C@H]1C [Compound 156]
A (percent of modification ≥70%)	A (percent of modification ≥70%)	< 100 nM	B (50≤percent of modification <70%)		C=CC(=O)N1CC[C@@H](N(CC)c2nc(OC[C@]34CCCN3C[C@H](OC)C4)nc3c(F)c(-c4ccc(F)c5sc(N)c(C#N)c45)c(C(F)(F)F)cc23)[C@H]1C [Compound 158]

The next lines start with the molecule.

SMILES	GDP-KRAS G12C percent of modification [1]	GppNHp-KRAS G12C percent of modification [2]	IC50 (pERK in NCI-H358 cells; Homo sapiens, NCI-H358, 0.5 h)	GTP-KRAS G12C percent of modification [3]	IC50 (pERK in NCI-H358 cells)
C=CC(=O)N1C[C@H](N(C)c2nc(OC[C@@]34CCCN3C[C@H](F)C4)nc3cc(-c4ccc(F)c5sc(N)c(C#N)c45)c(F)cc23)C[C@@H]1C [Compound 109]	A (percent of modification ≥70%)	C (10%≤percent of modification <50%)	< 100 nM	C (10%≤percent of modification <50%)	
C=CC(=O)N1CC[C@@H](N(C)c2nc(OC[C@@]34CCCN3C[C@H](F)C4)nc3cc(-c4nc(N)cc(C)c4C(F)(F)F)c(F)cc23)[C@H]1C [Compound 110]	A (percent of modification ≥70%)	A (percent of modification ≥70%)	100 to 1000 nM	B (50≤percent of modification <70%)	
C=CC(=O)N1CC[C@@H](N(C)c2nc(OC[C@@H]3CC4(CC4)CN3C)nc3c(F)c(-c4ccc(F)c5sc(N)c(C#N)c45)c(C(F)(F)F)cc23)[C@@H]1C [Compound 112]	D (percent of modification <10%)	D (percent of modification <10%)		D (percent of modification <10%)	100 to 1000 nM
C=CC(=O)N1CC[C@@H](N(C)c2nc(OC[C@@]34CCCN3C[C@H](F)C4)nc3c(F)c(-c4nc(N)cc(C)c4C(F)(F)F)ccc23)[C@H]1C [Compound 115]	A (percent of modification ≥70%)	A (percent of modification ≥70%)	100 to 1000 nM	A (percent of modification ≥70%)	
C=CC(=O)N1CC[C@@H](N(C)c2nc(OC[C@@H]3CCCN3C)nc3c(F)c(-c4nc(N)cc(C)c4C(F)(F)F)c(C(F)(F)F)cc23)[C@H]1C [Compound 122]	A (percent of modification ≥70%)	A (percent of modification ≥70%)	100 to 1000 nM	B (50≤percent of modification <70%)	
C=CC(=O)N1CC[C@@H](N(CC)c2nc(OC[C@@H]3CCCN3C)nc3cc(-c4ccc(F)c5sc(N)c(C#N)c45)c(F)cc23)[C@H]1C [Compound 138]	A (percent of modification ≥70%)	A (percent of modification ≥70%)	< 100 nM	A (percent of modification ≥70%)	
C=CC(=O)N1CC[C@@H](N(CC)c2nc(OC[C@@H]3C[C@@H](F)CN3C)nc3cc(-c4ccc(F)c5sc(N)c(C#N)c45)c(F)cc23)[C@H]1C [Compound 139]	A (percent of modification ≥70%)	A (percent of modification ≥70%)	100 to 1000 nM	A (percent of modification ≥70%)	
C=CC(=O)N1CC[C@@H](N(CC)c2nc(OC[C@@H]3C[C@@H](OC)CN3C)nc3cc(-c4ccc(F)c5sc(N)c(C#N)c45)c(F)cc23)[C@H]1C [Compound 140]	A (percent of modification ≥70%)	A (percent of modification ≥70%)	< 100 nM	A (percent of modification ≥70%)	
C=CC(=O)N1CC[C@@H](N(CC)c2nc(OC[C@@H]3CCCN3C)nc3c(F)c(-c4ccc(F)c5sc(N)c(C#N)c45)ccc23)[C@H]1C [Compound 141]	A (percent of modification ≥70%)	A (percent of modification ≥70%)	< 100 nM	A (percent of modification ≥70%)	
C=CC(=O)N1CC[C@@H](N(CC)c2nc(OC[C@@H]3C[C@@H](F)CN3C)nc3c(F)c(-c4ccc(F)c5sc(N)c(C#N)c45)ccc23)[C@H]1C [Compound 142]	A (percent of modification ≥70%)	A (percent of modification ≥70%)	< 100 nM	A (percent of modification ≥70%)	
C=CC(=O)N1CC[C@@H](N(C)c2nc(OC[C@@H]3C[C@@H](F)CN3CC)nc3c(F)c(-c4ccc(F)c5sc(N)c(C#N)c45)c(C(F)(F)F)cc23)[C@@H]1C [Compound 144]	C (10%≤percent of modification <50%)	C (10%≤percent of modification <50%)	< 100 nM	C (10%≤percent of modification <50%)	
C=CC(=O)N1CC[C@@H](N(C)c2nc(OC[C@@H]3C[C@@H](F)CN3C)nc3c(F)c(-c4nc(N)cc(C)c4C(F)(F)F)c(C(F)(F)F)cc23)[C@H]1C [Compound 145]	A (percent of modification ≥70%)	B (50≤percent of modification <70%)	100 to 1000 nM	C (10%≤percent of modification <50%)	
